Key:
[1] = test system: ovariectomized (OVX) mice; experiment: Ovariectomized (OVX) mice model of osteoporosis, femur bone parameters; format: in vivo; conditions: daily for 10 weeks; for BMD: femur
Excerpt: (§1) An ability of LAD to treat osteoporosis was confirmed in an animal model of ovariectomized (OVX) mice commonly used as an animal model of osteoporosis.
(§2) As the positive control, parathyroid hormone (PTH)-based Forteo (Eli Lilly) used as an osteoporosis therapeutic agent through an osteogenesis-promoting mechanism, and alendronate-based Fosamax (Merck) serving as a bone resorption inhibitor, were subcutaneously administered. As the negative control, water (H2O) was orally administered, and LAD was orally administered at a concentration of 5 or 30 mg/kg (FIG. 8A). After the drug was administered daily for 10 weeks, the bone mineral density (BMD) was measured.

RUNX2 [2] = experiment: Change in expression of RUNX2 in MSCs (antibody staining, fluorescence microscope); format: cell-based, human; conditions: 0.001 μM (1 nM), once a day for 7 and 14 days, increased with concentration up to 0.1 μM
Excerpt: (§3) Runt-related transcription factor 2 (RUNX2; core-binding factor alpha, Cbfa1) is the most important transcriptional regulatory factor for osteogenesis, and is known to be involved in osteoblast differentiation, matrix generation, and mineralization during the osteogenesis (Bruderer M, et al., Eur Cell Mater. 2014). Also, RUNX2 itself may be regulated by a bone morphogenetic protein (BMP), which is a type of cytokine (Sun J, et al., Mol Med Rep. 2015). Accordingly, it was confirmed whether LAD promotes the expression of an osteogenesis-related specific factor to induce osteogenesis.
(§4) MSCs were seeded in a 24-well plate at a concentration of 3×10^4 cells/well, and cultured for 24 hours. From the next day, the MSCs were treated with different concentrations (0.001 μM, 0.01 μM, and 0.1 μM) of LAD once a day for 7 days and 14 days. After the experiment was completed, the MSCs were stained with RUNX2 and BMP-2 antibodies, and observed using a fluorescence microscope.

BMP-2 = experiment: Change in expression of BMP2 in MSCs (antibody staining, fluorescence microscope); format: cell-based, human; conditions: 0.001 μM (1 nM), once a day for 7 and 14 days, increased with concentration up to 0.1 μM
Excerpt: as §3, §4

osteocalcin = experiment: Change in expression of osteocalcin in MSCs (antibody staining, fluorescence microscope); format: cell-based, human; conditions: 0.001 μM, within 7 days, level similar to OIM-treated group
Protocol: Osteocalcin is expressed only in osteoblasts (Lee et al., Cell 2007), and is used as a useful biomarker for osteogenesis (Bharadwaj et al., Osteoporosis International., 2009).
An experiment was performed in the same manner as described in Experimental Example 1-2, and MSCs were then stained with an osteocalcin antibody, and observed using a fluorescence microscope.

[3] = test system: phosphorylated forms of 43 kinases (ERK, Akt, WNK1); experiment: Phosphokinase antibody array in MSCs; format: cell-based, human; conditions: LAD 1 μM, 24 hours, compared to control DMSO
Protocol: To study a mechanism by which LAD differentiates MSCs into osteoblasts, related signaling was investigated.
MSCs cultured in an experimental DMEM culture medium were treated with LAD (1 μM) or the control compound (DMSO), and cultured for 24 hours. The cells were recovered, and an experiment was then performed according to a method specified in a phosphokinase antibody array kit (R&D Systems) containing antibodies that specifically recognize phosphorylated forms of 43 kinases. Then, samples were analyzed using an ImageJ (NIH, USA) program.

MSCs = experiment: Osteoblast differentiation of MSCs with LAD plus kinase inhibitor (Alizarin Red); format: cell-based, human; conditions: LAD 1 μM combined with inhibitor (1 μM) of ERK, P38 or Akt, 3 weeks, compared to LAD alone
Protocol: To further study the mechanism by which LAD differentiates MSCs into osteoblasts, an experiment was performed using a kinase inhibitor.
After MSCs were cultured, the MSCs were simultaneously treated with a kinase inhibitor (1 μM) and LAD (1 μM). Next day, the medium was exchanged, and the MSCs were simultaneously treated again with the kinase inhibitor and LAD. This procedure was repeated for 3 weeks, and the MSCs were than stained with Alizarin Red.

[4] = test system: phosphorylated ERK (pERK); experiment: ERK phosphorylation in MSCs after LAD treatment; format: cell-based, human
Protocol: Accordingly, the level of phosphorylated ERK according to time elapsed after MSCs were treated with LAD was determined.
Also, to determine whether LAD induces the ERK phosphorylation for a long period, MSCs were treated with various concentrations (0.001, 0.01, and 0.1 μM) of LAD, and the level of phosphorylated ERK (pERK) was checked after 7 days and 14 days. […] In particular, it was confirmed that the level of phosphorylated ERK (pERK) increased to a level similar to that of the positive control (OIM) even at a low concentration.

RUNX2 [5] = experiment: Effect of ERK inhibitor on increase in RUNX2 expression by LAD in MSCs; format: cell-based, human
Protocol: ERK may induce the phosphorylation of RUNX2 to increase transcriptional activity and may be involved in stability to increase an amount of RUNX2 protein (Greenblatt et al., MB, Annu Rev Cell Dev Biol. 2013). Therefore, an increase in ERK phosphorylation by LAD may induce RUNX2 expression so that LAD can be involved in the differentiation of MSCs into osteoblasts. To verify this, an expression level of RUNX2 was determined after MSCs were treated with a combination of LAD (0.1 μM) and the ERK inhibitor PD98059 (50 μM).

RUNX2 [6] = experiment: RUNX2 expression in femurs of ovariectomized mice; format: in vivo; conditions: LAD oral, daily for 10 weeks
Excerpt: as §1, §2
In Table 1, BMD represents bone mineral density, TV represents total volume, BV represents bone volume, Tb.Th represents trabecular thickness, and Tb.N represents trabecular number.

[7] = OVX mice, positive control subcutaneous

## CC[C@H](C)[C@H](NC(=O)[C@H](CCC(=O)O)NC(=O)[C@H](CO)NC(=O)[C@@H](NC(=O)[C@@H](N)CO)C(C)C)C(=O)N[C@@H](CCC(N)=O)C(=O)N[C@@H](CC(C)C)C(=O)N[C@@H](CCSC)C(=O)N[C@@H](Cc1cnc[nH]1)C(=O)N[C@@H](CC(N)=O)C(=O)N[C@@H](CC(C)C)C(=O)NCC(=O)N[C@@H](CCCCN)C(=O)N[C@@H](Cc1cnc[nH]1)C(=O)N[C@@H](CC(C)C)C(=O)N[C@@H](CC(N)=O)C(=O)N[C@@H](CO)C(=O)N[C@@H](CCSC)C(=O)N[C@@H](CCC(=O)O)C(=O)N[C@@H](CCCN=C(N)N)C(=O)N[C@H](C(=O)N[C@@H](CCC(=O)O)C(=O)N[C@@H](Cc1c[nH]c2ccccc12)C(=O)N[C@@H](CC(C)C)C(=O)N[C@@H](CCCN=C(N)N)C(=O)N[C@@H](CCCCN)C(=O)N[C@@H](CCCCN)C(=O)N[C@@H](CC(C)C)C(=O)N[C@@H](CCC(N)=O)C(=O)N[C@@H](CC(=O)O)C(=O)N[C@H](C(=O)N[C@@H](Cc1cnc[nH]1)C(=O)N[C@@H](CC(N)=O)C(=O)N[C@@H](Cc1ccccc1)C(=O)O)C(C)C)C(C)C [Forteo, reference compound]
[1]; [7]
  BV: 0.8791 mm^3
  BV/TV: 5.735%
  TV: 15.43 mm^3
  Tb. N: 0.8018 mm
  Tb. Th: 0.07112 1/mm
  BMD: 0.2013 g/mL

## NCCCC(O)(P(=O)(O)O)P(=O)(O)O [Fosamax, reference compound]
[1]; [7]
  BV: 1.017 mm^3
  BV/TV: 6.521%
  TV: 15.51 mm^3
  Tb. N: 0.9286 mm
  Tb. Th: 0.06994 1/mm
  BMD: 0.2145 g/mL

## CCN1C[C@]2(OC(=O)c3ccccc3NC(C)=O)CC[C@H](OC)C34C1C(C[C@@H]32)C(=O)C[C@H](OC)[C@H]1C[C@@H]4C(=O)[C@H]1OC [LAD, (3S,6S,7S,9S,11S,16S)-1-ethyl-6,9,11-trimethoxy-8,13-dioxododecahydro-2H-3,6a,14-(epiethane[1,1,2]triyl)-7,10-methanocyclodeca[b]azocin-3(4H)-yl 2-acetaminobenzoate]
RUNX2 [2]
  expression of RUNX2: strongly induced
BMP-2
  expression of BMP-2: strongly induced
osteocalcin
  expression of osteocalcin: strongly induced
[3]
  phosphorylation of signaling molecules such as ERK, Akt, WNK1: strongly increased
MSCs
  osteoblast differentiation ability of LAD (Alizarin Red): inhibited
[4]; MSCs, 0.001, 0.01 and 0.1 μM LAD, after 7 days and 14 days, similar to OIM even at low concentration
  level of phosphorylated ERK (pERK): significantly increased
[4]; MSCs, 24 hours after LAD treatment
  level of phosphorylated ERK (pERK): increased
[4]; MSCs, within 30 minutes after LAD treatment
  level of phosphorylated ERK (pERK): significantly increased
RUNX2 [5]; LAD 0.1 μM alone, within 12 hours (same at 24 hours)
  expression of RUNX2: significantly increased
[1]; OVX mice, LAD 5 mg/kg oral
  BV: 1.009 mm^3
  BV/TV: 6.422%
  TV: 15.6 mm^3
  Tb. N: 0.8775 mm
  Tb. Th: 0.205 1/mm
  BMD: 0.2066 g/mL
[1]; OVX mice, LAD 30 mg/kg oral
  BV: 1.17 mm^3
  BV/TV: 7.036%
  TV: 16.58 mm^3
  Tb. N: 0.9485 mm
  Tb. Th: 0.0739 1/mm
  BMD: 0.2168 g/mL
[1]; OVX mice, LAD 5 or 30 mg/kg oral, versus water
  bone mineral density compared to the negative control: significantly increased
[1]; OVX mice, LAD oral versus Forteo subcutaneous
  effect on bone mineral density compared with Forteo: significantly superior to that of Forteo
[1]; ovariectomized mice, LAD oral
  osteogenesis in the femurs (tissue staining): induced osteogenesis
RUNX2 [6]
  expression of RUNX2 in femurs: significantly increased

## COc1cccc(-c2cc(=O)c3ccccc3o2)c1N [PD98059, reference compound]
RUNX2 [5]; combination of LAD 0.1 μM and PD98059 50 μM, 12 hours (same at 24 hours)
  expression of RUNX2: significantly decreased
